{"source": "patent US4668620A", "about": "“Reducing background interference activity in enzyme-label immunoassays” (Syntex (U.S.A.) Inc., priority 1984, dated 1987)", "tested_on": "β-galactosidase", "assay": "Testing effects of serum on native enzyme activity with DUG", "format": "biochemical", "details": "0.02 mM DUG, 37°, 10 second delay, 30 second read", "procedure": "(2) Testing effects of serum on native enzyme activity with DUG:\nThe procedure of c (1) above was followed using 50 µl of 1.75×PBS,N3, Mg+0.5% RSA and 50 μ1 β-galactosidase in place of serum and conjugate, respectively, and […] of 0.02mM DUG in 1.75×PBX, N3, Mg +0.5% RSA.\nThe fluorescence rate was measured at 37° , 10 second delay, 30 second read."}
{"substance": "β-galactosidase: native active enzyme used as label in the immunoassay", "values": [{"measurement": "ΔF/30 sec., Buffer", "setting": "native enzyme in buffer", "result": "250 ΔF/30 sec."}, {"measurement": "ΔF/30 sec., Serum", "setting": "native enzyme in serum", "result": "230 ΔF/30 sec."}]}
